Values quoted from earlier work as cited in US20110208161A1, “INT[…] […] TO THE CENTRAL NERVOUS SYSTEM” (priority 2009, published 2011).
Where a SMILES comes first, the peptide text is derived from it.

Target: T1, μ receptor (Oryctolagus cuniculus, UniProt G1TAQ8)
T1 construct: host or cells: brain tissue at the fourth ventricle, in vivo
Settings: infusion into the fourth ventricle

T1 sequence (G1TAQ8 1-401): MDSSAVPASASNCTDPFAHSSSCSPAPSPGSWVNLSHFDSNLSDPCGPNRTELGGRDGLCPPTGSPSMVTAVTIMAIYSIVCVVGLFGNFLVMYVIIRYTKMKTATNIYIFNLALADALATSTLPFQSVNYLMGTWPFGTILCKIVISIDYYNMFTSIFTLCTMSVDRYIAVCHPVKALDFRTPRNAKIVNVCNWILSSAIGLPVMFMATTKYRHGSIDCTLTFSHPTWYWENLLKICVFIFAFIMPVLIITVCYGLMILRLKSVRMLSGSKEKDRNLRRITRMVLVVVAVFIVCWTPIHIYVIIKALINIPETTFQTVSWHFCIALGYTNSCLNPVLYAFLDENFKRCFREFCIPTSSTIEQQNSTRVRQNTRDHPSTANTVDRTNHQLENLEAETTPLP

NC(=O)[C@@H]1CCCN1C(=O)[C@H](Cc1ccccc1)NC(=O)[C@@H]1CCCN1C(=O)[C@@H](N)Cc1ccc(O)cc1 [morphiceptin] (H-YPFP-NH2)
effect on spinal cord nociceptive transmission: attenuate spinal cord nociceptive transmission
